Measured values as given in patent US20160102052A1, “Use of Cysteamine in Treating Infections caused by Yeasts/Moulds” (priority 2014, published 2016).

Tested on: Candida albicans 73/025
Test: Minimum inhibitory concentration test of cysteamine (Lynovex, NM001), CLSI M27-A3
Assay type: cell-based
Conditions: vulvovaginal isolate 73/025; RPMI-1640, 35° C., read at 24 h and 48 h
Method: The aim of the experiment was to determine the MIC of Lynovex (NM001) against vulvovaginal isolate Candida albicans 73/025. Plates were prepared which contain a serial doubling dilution of Lynovex (NM001) at 2× final concentration. The cultures were then prepared in 2×RPMI-1640, according to the CLSI M27-A3 protocol, and mixed in equal volumes in the plate resulting in 1×RPMI-1640, the concentration of compound mentioned below, and the CLSI standard inoculum for C. albicans. These were incubated at 35° C. and read at 24 h and 48 h on the BioTek plate reader.
• 1. Culture of Candida albicans grown overnight at 30° C. • 2. Culture removed from incubator. Add 2 ml sterile dH2O to the overnight culture and wash the cells from the surface of the agar. Cells placed in fresh bijou tube. • 3. Serial doubling dilution carried out and measured against same volume of MacFarland Standard • a. 100 μl culture added to well A1 of microtitre plate. • b. 100 μl sterile dH2O added to wells A2-A11. • c. 100 μl culture added to well A2 of microtitre plate and mixed well resulting in a 1 in 2 dilution. • d. 100 μl taken from A2 and added to A3 on plate and mixed well resulting in a 1 in 4 dilution. • e. This is continued to A11 where 100 μl is removed and discarded. • f. […] Plate read at OD530 on BioTek • h. […]
• 1. […] The plate is read in the BioTek at OD530. • 3. […]

NCCS [NM001, cysteamine]
growth of Candida albicans: inhibited the growth
